Experimental data from patent US12290596B2, “Compositions and methods for the treatment of opioid overdose” (priority 2021, dated 2025).

How the values were obtained:
[1] = Two-period crossover pharmacokinetics of nalmefene 3 mg IN vs 1.0 mg IM (Example 12); details: human, plasma; for concentration at 0.5 h: 0.500 h
[2] = Phase 1 pharmacokinetic evaluation of nalmefene IN with and without Intravail vs IM injection
[3] = intramuscular, 1 mg, Median plasma concentration, Treatment B 1.0 mg IM
[4] = other: intranasal, 3 mg, Mean plasma concentration, Treatment A 3.0 mg IN
[5] = other: intranasal, 3 mg, Median plasma concentration, Treatment A 3.0 mg IN

SMILES: C=C1CC[C@@]2(O)[C@H]3Cc4ccc(O)c5c4[C@@]2(CCN3CC2CC2)[C@H]1O5 [Nalmefene, 17-cyclopropylmethyl-4,5α-epoxy-6-methylenemorphinan-3,14-diol]
- concentration at 0.5 h [1, 3]: 0.945 ng/mL
- concentration at 1 h [1, 3]: 0.829 ng/mL
- concentration at 2 h [1, 3]: 0.858 ng/mL
- concentration at 3 h [1, 3]: 0.818 ng/mL
- concentration at 4 h [1, 3]: 0.77 ng/mL
- concentration at 6 h [1, 3]: 0.673 ng/mL
- concentration at 8 h [1, 3]: 0.629 ng/mL
- concentration at 36 h [1, 3]: 0.0915 ng/mL
- concentration at 12 h [1, 3]: 0.516 ng/mL
- concentration at 18 h [1, 3]: 0.341 ng/mL
- concentration at 24 h [1, 3]: 0.203 ng/mL
- concentration at 48 h [1, 3]: 0.0436 ng/mL
- half-life ([1]; other: intranasal (nasal spray), 3 mg, Plasma half-life, 3 mg IN): ~11 h
- AUC(0-t) ([1]; other: intranasal, 3 mg, AUC0-5 min, GeoMean, Treatment A 3.0 mg IN (Test)): 0.06 ng·h/mL
- AUC(0-t) ([1]; other: intranasal, 3 mg, AUC0-5 min, Treatment A: 3.0 mg nalmefene hydrochloride IN, Geo. Mean, n 66): 0.0599 ng·h/mL
- AUC(0-t) ([1]; other: intranasal, 3 mg, AUC0-5 min, Treatment A: 3.0 mg nalmefene hydrochloride IN, Median, n 66): 0.0546 ng·h/mL
- AUC(0-t) ([1]; other: intranasal, 3 mg, AUC0-10 min, GeoMean, Treatment A 3.0 mg IN (Test)): 0.514 ng·h/mL
- AUC(0-t) ([1]; other: intranasal, 3 mg, AUC0-10 min, Treatment A: 3.0 mg nalmefene hydrochloride IN, Geo. Mean, n 66): 0.523 ng·h/mL
- AUC(0-t) ([1]; other: intranasal, 3 mg, AUC0-10 min, Treatment A: 3.0 mg nalmefene hydrochloride IN, Mean, n 66): 0.787 ng·h/mL
- AUC(0-t) ([1]; other: intranasal, 3 mg, AUC0-10 min, Treatment A: 3.0 mg nalmefene hydrochloride IN, Median, n 66): 0.537 ng·h/mL
- AUC(0-t) ([1]; other: intranasal, 3 mg, AUC0-15 min, GeoMean, Treatment A 3.0 mg IN (Test)): 1.19 ng·h/mL
- AUC(0-t) ([1]; other: intranasal, 3 mg, AUC0-15 min, Treatment A: 3.0 mg nalmefene hydrochloride IN, Geo. Mean, n 66): 1.2 ng·h/mL
- AUC(0-t) ([1]; other: intranasal, 3 mg, AUC0-15 min, Treatment A: 3.0 mg nalmefene hydrochloride IN, Mean, n 66): 1.6 ng·h/mL
- AUC(0-t) ([1]; other: intranasal, 3 mg, AUC0-15 min, Treatment A: 3.0 mg nalmefene hydrochloride IN, Median, n 66): 1.19 ng·h/mL
- AUC(0-t) ([1]; other: intranasal, 3 mg, AUC0-20 min, GeoMean, Treatment A 3.0 mg IN (Test)): 1.87 ng·h/mL
- AUC(0-t) ([1]; other: intranasal, 3 mg, AUC0-20 min, Treatment A: 3.0 mg nalmefene hydrochloride IN, Geo. Mean, n 66): 1.89 ng·h/mL
- AUC(0-t) ([1]; other: intranasal, 3 mg, AUC0-20 min, Treatment A: 3.0 mg nalmefene hydrochloride IN, Mean, n 66): 2.34 ng·h/mL
- AUC(0-t) ([1]; other: intranasal, 3 mg, AUC0-20 min, Treatment A: 3.0 mg nalmefene hydrochloride IN, Median, n 66): 1.85 ng·h/mL
- AUC(0-t) ([1]; other: intranasal, 3 mg, AUC0-30 min, GeoMean, Treatment A 3.0 mg IN (Test)): 3.04 ng·h/mL
- AUC(0-t) ([1]; other: intranasal, 3 mg, AUC0-30 min, Treatment A: 3.0 mg nalmefene hydrochloride IN, Geo. Mean, n 66): 3.07 ng·h/mL
- AUC(0-t) ([1]; other: intranasal, 3 mg, AUC0-30 min, Treatment A: 3.0 mg nalmefene hydrochloride IN, Mean, n 66): 3.55 ng·h/mL
- AUC(0-t) ([1]; other: intranasal, 3 mg, AUC0-30 min, Treatment A: 3.0 mg nalmefene hydrochloride IN, Median, n 66): 3.04 ng·h/mL
- AUC(0-t) ([1]; other: intranasal, 3 mg, AUC0-[…], Treatment A: 3.0 mg nalmefene hydrochloride IN, Mean, n 66): 0.0193 ng·h/mL
- AUC(0-t) ([1]; other: intranasal, 3 mg, AUCLast, GeoMean, Treatment A 3.0 mg IN (Test)): 38.9 ng·h/mL
- AUC(0-inf) ([1]; other: intranasal, 3 mg, AUCinf, GeoMean, Treatment A 3.0 mg IN (Test)): 40.3 ng·h/mL
- Cmax ([1]; other: intranasal, 3 mg, Cmax, GeoMean, Treatment A 3.0 mg IN (Test)): 10.3 ng/mL
- concentration at 0 h [1, 4]: 0.00146 ng/mL
- concentration at 0.5 h [1, 4]: 6.25 ng/mL
- concentration at 1 h [1, 4]: 4.64 ng/mL
- concentration at 2 h [1, 4]: 4.03 ng/mL
- concentration at 3 h [1, 4]: 3.17 ng/mL
- concentration at 4 h [1, 4]: 2.52 ng/mL
- concentration at 6 h [1, 4]: 1.69 ng/mL
- concentration at 8 h [1, 4]: 1.23 ng/mL
- concentration at 36 h [1, 4]: 0.171 ng/mL
- concentration at 12 h [1, 4]: 0.87 ng/mL
- concentration at 18 h [1, 4]: 0.529 ng/mL
- concentration at 24 h [1, 4]: 0.366 ng/mL
- concentration at 48 h [1, 4]: 0.0875 ng/mL
- concentration at 0 h [1, 5]: 0 ng/mL
- concentration at 0.5 h [1, 5]: 5.86 ng/mL
- concentration at 1 h [1, 5]: 4.68 ng/mL
- concentration at 2 h [1, 5]: 3.99 ng/mL
- concentration at 3 h [1, 5]: 3.13 ng/mL
- concentration at 4 h [1, 5]: 2.49 ng/mL
- concentration at 6 h [1, 5]: 1.65 ng/mL
- concentration at 8 h [1, 5]: 1.18 ng/mL
- concentration at 36 h [1, 5]: 0.165 ng/mL
- concentration at 12 h [1, 5]: 0.832 ng/mL
- concentration at 18 h [1, 5]: 0.518 ng/mL
- concentration at 24 h [1, 5]: 0.341 ng/mL
- concentration at 48 h [1, 5]: 0.0843 ng/mL
- AUCextrap, mean ([2]; 1.5 mg IM): 22.6%
- Cmax/D, mean ([2]; 1.5 mg IM): 1.12 ng/mL/mg
- Lambda z, mean ([2]; 1.5 mg IM): 0.094 h⁻¹
- AUCextrap, mean ([2]; 1.5 mg IN): 30.6%
- Cmax/D, mean ([2]; 1.5 mg IN): 0.646 ng/mL/mg
- Half-life, mean ([2]; 1.5 mg IN): 6.74 h
- Lambda z, mean ([2]; 1.5 mg IN): 0.131 h⁻¹
- AUCextrap, mean ([2]; 3 mg IN): 17.9%
- Cmax/D, mean ([2]; 3 mg IN): 0.731 ng/mL/mg
- Lambda z, mean ([2]; 3 mg IN): 0.101 h⁻¹
- AUCextrap, mean ([2]; 3 mg plus […] Intravail IN): 14.6%
- Cmax/D, mean ([2]; 3 mg plus […] Intravail IN): 1.65 ng/mL/mg
- Lambda z, mean ([2]; 3 mg plus […] Intravail IN): 0.117 h⁻¹
- concentration at 0 h ([2]; human, in vivo, 1.5 mg): 0 µg/mL
- concentration at 0.04 h ([2]; human, in vivo, 1.5 mg): 0 µg/mL
- concentration at 0.08 h ([2]; human, in vivo, 1.5 mg): 0 µg/mL
- concentration at 30 h ([2]; human, in vivo, 1.5 mg): 0 µg/mL
- concentration at 36 h ([2]; human, in vivo, 1.5 mg): 0 µg/mL
- concentration at 48 h ([2]; human, in vivo, 1.5 mg): 0 µg/mL
- concentration at 60 h ([2]; human, in vivo, 1.5 mg): 0 µg/mL
- concentration at 72 h ([2]; human, in vivo, 1.5 mg): 0 µg/mL
- concentration at 0 h ([2]; human, in vivo, 3 mg): 0 µg/mL
- concentration at 0.04 h ([2]; human, in vivo, 3 mg): 0 µg/mL
- concentration at 0.08 h ([2]; human, in vivo, 3 mg): 0 µg/mL
- concentration at 48 h ([2]; human, in vivo, 3 mg): 0 µg/mL
- concentration at 60 h ([2]; human, in vivo, 3 mg): 0 µg/mL
- concentration at 72 h ([2]; human, in vivo, 3 mg): 0 µg/mL
